How the values were obtained:
Format in all cases: cell-based
Klebsiella pneumonia = test: MIC against Gram-negative bacteria: Klebsiella pneumonia; conditions: 5×10^5 CFU/mL
Method in brief: (§1)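 Inocula prepared by growing LB cultures at 37° C to 0.5 McFarland, centrifuging at 4000×g, and resuspending in fresh medium. Final density 5×10^5 CFU/mL per well with two-fold dilutions of purified EGF domain protein; shaking incubation at 37° C.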

Proteus vulgaris = test: MIC against Gram-negative bacteria: Proteus vulgaris; conditions: 5×10^5 CFU/mL
Method in brief: as §1

Serratia marcescens = test: MIC against Gram-negative bacteria: Serratia marcescens; conditions: 5×10^5 CFU/mL
Method in brief: as §1

Pseudomonas aeruginosa = test: MIC against Gram-negative bacteria: Pseudomonas aeruginosa; conditions: 5×10^5 CFU/mL
Method in brief: as §1

Proteus mirabilis = test: MIC against Gram-negative bacteria: Proteus mirabilis; conditions: 5×10^5 CFU/mL
Method in brief: as §1

Enterobacter cloacae = test: MIC against Gram-negative bacteria: Enterobacter cloacae; conditions: 5×10^5 CFU/mL
Method in brief: as §1

Moraxella catarrhalis = test: MIC against Gram-negative bacteria: Moraxella catarrhalis; conditions: 5×10^5 CFU/mL
Method in brief: as §1

Citrobacter diversus = test: MIC against Gram-negative bacteria: Citrobacter diversus; conditions: 5×10^5 CFU/mL
Method in brief: as §1

E. coli DH5α = test: Antibacterial activity: MIC and growth curve against E. coli DH5α in 96-well plate; conditions: minimal inhibitory concentration against E. coli DH5α; 96-well plate, 5×10^5 CFU/mL, 37° C., judged after 8 h
Method in brief: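 Log-phase DH5α (OD600 about 0.5, 37° C, 185 rpm in LB) was pelleted, resuspended in fresh LB and seeded at 5×10^5 CFU/mL with recombinant protein at 50, 25 and 12.5 μg/mL (two-fold series), in triplicate. Plates were shaken at 175 rpm, 37° C, and OD600 was read every 30 min. MIC was the lowest concentration with no growth.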

Aeromonas hydrophila = test: MIC against Gram-negative bacteria: Aeromonas hydrophila; conditions: 5×10^5 CFU/mL
Method in brief: as §1

E. coli BL21 = test: MIC against Gram-negative bacteria: E. coli BL21; conditions: 5×10^5 CFU/mL
Method in brief: as §1

[1] = 10 h cultivation at 37° C., two-fold serial dilution
[2] = Klebsiella pneumonia, 96-well plate, 37° C., 10 h
[3] = Proteus vulgaris, 96-well plate, 37° C., 10 h
[4] = Serratia marcescens, 96-well plate, 37° C., 10 h
[5] = Pseudomonas aeruginosa, 96-well plate, 37° C., 10 h
[6] = Proteus mirabilis, 96-well plate, 37° C., 10 h
[7] = Enterobacter cloacae, 96-well plate, 37° C., 10 h
[8] = Moraxella catarrhalis, 96-well plate, 37° C., 10 h
[9] = Citrobacter diversus, 96-well plate, 37° C., 10 h
[10] = Aeromonas hydrophila, 96-well plate, 37° C., 10 h
[11] = E. coli BL21, 96-well plate, 37° C., 10 h

PRT1129 (PVTNCASSPCQNGGTCLQHTQVSYECLCKPEFTGLTCV; listed as Homo sapiens)
MIC K. pneumonia (Klebsiella pneumonia; [1]): 12.5 mg/L
MIC P. vulgaris (Proteus vulgaris; [1]): 12.5 mg/L
MIC S. marcescens (Serratia marcescens; [1]): 12.5 mg/L
MIC P. aeruginosa (Pseudomonas aeruginosa; [1]): 50 mg/L
MIC P. mirabilis (Proteus mirabilis; [1]): 12.5 mg/L
MIC E. cloacae (Enterobacter cloacae; [1]): 12.5 mg/L
MIC M. catarrhalis (Moraxella catarrhalis; [1]): 12.5 mg/L
MIC C. diversus (Citrobacter diversus; [1]): 12.5 mg/L
MIC (E. coli DH5α): 50 mg/L
MIC A. hydrophila (Aeromonas hydrophila; [1]): 25 mg/L
MIC E. coli BL21 (E. coli BL21; [1]): 12.5 mg/L

PRT647 (DVDECLRPDVCGEGHCVNTVGAFRCEYCDSGYRMTQRGRCE; listed as Homo sapiens)
MIC K. pneumonia (Klebsiella pneumonia; 96-well plate, 37° C., 10 h): 50 mg/L
MIC P. vulgaris (Proteus vulgaris; 96-well plate, 37° C., 10 h): 50 mg/L
MIC S. marcescens (Serratia marcescens; 96-well plate, 37° C., 10 h): 25 mg/L
MIC P. aeruginosa (Pseudomonas aeruginosa; 96-well plate, 37° C., 10 h): 25 mg/L
MIC P. mirabilis (Proteus mirabilis; 96-well plate, 37° C., 10 h): 12.5 mg/L
MIC E. cloacae (Enterobacter cloacae; 96-well plate, 37° C., 10 h): 12.5 mg/L
MIC M. catarrhalis (Moraxella catarrhalis; 96-well plate, 37° C., 10 h): 50 mg/L
MIC C. diversus (Citrobacter diversus; 96-well plate, 37° C., 10 h): 12.5 mg/L
MIC (E. coli DH5α): 25 mg/L
MIC A. hydrophila (Aeromonas hydrophila; 96-well plate, 37° C., 10 h): 50 mg/L
MIC E. coli BL21 (E. coli BL21; 96-well plate, 37° C., 10 h): 12.5 mg/L

PRT26 (CDSGPCKNSGFCSERWGSFSCDCPVGFGGKDCQ; listed as Homo sapiens)
MIC (μg/mL) K. pneumonia (Klebsiella pneumonia; [2]): 12.5 µg/mL
MIC (μg/mL) P. vulgaris (Proteus vulgaris; [3]): 12.5 µg/mL
MIC (μg/mL) S. marcescens (Serratia marcescens; [4]): 25 µg/mL
MIC (μg/mL) P. aeruginosa (Pseudomonas aeruginosa; [5]): 25 µg/mL
MIC (μg/mL) P. mirabilis (Proteus mirabilis; [6]): 25 µg/mL
MIC (μg/mL) E. cloacae (Enterobacter cloacae; [7]): 25 µg/mL
MIC (μg/mL) M. catarrhalis (Moraxella catarrhalis; [8]): 12.5 µg/mL
MIC (μg/mL) C. diversus (Citrobacter diversus; [9]): 25 µg/mL
MIC (E. coli DH5α): 25 mg/L
MIC (μg/mL) A. hydrophila (Aeromonas hydrophila; [10]): 12.5 µg/mL
MIC (μg/mL) E. coli BL21 (E. coli BL21; [11]): 12.5 µg/mL

PRT1283 (NTDDCVDHACANGGVCVDGVGNYTCQCPLQYEGKACE; listed as Homo sapiens)
MIC against K. pneumonia (Klebsiella pneumonia; [2]): 50 mg/L
MIC against P. vulgaris (Proteus vulgaris; [3]): 12.5 mg/L
MIC against S. marcescens (Serratia marcescens; [4]): 25 mg/L
MIC against P. aeruginosa (Pseudomonas aeruginosa; [5]): 12.5 mg/L
MIC against P. mirabilis (Proteus mirabilis; [6]): 25 mg/L
MIC against E. cloacae (Enterobacter cloacae; [7]): 12.5 mg/L
MIC against M. catarrhalis (Moraxella catarrhalis; [8]): 12.5 mg/L
MIC against C. diversus (Citrobacter diversus; [9]): 50 mg/L
MIC (E. coli DH5α): 12.5 mg/L
MIC against A. hydrophila (Aeromonas hydrophila; [10]): 12.5 mg/L
MIC against E. coli BL21 (E. coli BL21; [11]): 50 mg/L

PRT1441 (EVDECSWPDHGGCEHRCVNTLGSYKCACDPGYELAADKKMCE; listed as Homo sapiens)
MIC against K. pneumonia (Klebsiella pneumonia; Klebsiella pneumonia, 10 h cultivation at 37° C.): 25 mg/L
MIC against P. vulgaris (Proteus vulgaris; Proteus vulgaris, 10 h cultivation at 37° C.): 25 mg/L
MIC against S. marcescens (Serratia marcescens; Serratia marcescens, 10 h cultivation at 37° C.): 12.5 mg/L
MIC against P. aeruginosa (Pseudomonas aeruginosa; Pseudomonas aeruginosa, 10 h cultivation at 37° C.): 12.5 mg/L
MIC against P. mirabilis (Proteus mirabilis; Proteus mirabilis, 10 h cultivation at 37° C.): 12.5 mg/L
MIC against E. cloacae (Enterobacter cloacae; Enterobacter cloacae, 10 h cultivation at 37° C.): 12.5 mg/L
MIC against M. catarrhalis (Moraxella catarrhalis; Moraxella catarrhalis, 10 h cultivation at 37° C.): 12.5 mg/L
MIC against C. diversus (Citrobacter diversus; Citrobacter diversus, 10 h cultivation at 37° C.): 100 mg/L
MIC (E. coli DH5α): 25 mg/L
MIC against A. hydrophila (Aeromonas hydrophila; Aeromonas hydrophila, 10 h cultivation at 37° C.): 25 mg/L
MIC against E. coli BL21 (E. coli BL21; E. coli BL21, 10 h cultivation at 37° C.): 25 mg/L

PRT723 (KERTCAENICEQNCTQLNEGGFICSCTAGFETNVFDRTSCL; listed as Homo sapiens)
MIC K. pneumonia (Klebsiella pneumonia; 96-well plate, 37° C., 10 h): 100 mg/L
MIC P. vulgaris (Proteus vulgaris; 96-well plate, 37° C., 10 h): 25 mg/L
MIC S. marcescens (Serratia marcescens; 96-well plate, 37° C., 10 h): 12.5 mg/L
MIC P. aeruginosa (Pseudomonas aeruginosa; 96-well plate, 37° C., 10 h): 100 mg/L
MIC P. mirabilis (Proteus mirabilis; 96-well plate, 37° C., 10 h): 25 mg/L
MIC E. cloacae (Enterobacter cloacae; 96-well plate, 37° C., 10 h): 50 mg/L
MIC M. catarrhalis (Moraxella catarrhalis; 96-well plate, 37° C., 10 h): 12.5 mg/L
MIC C. diversus (Citrobacter diversus; 96-well plate, 37° C., 10 h): 25 mg/L
MIC (E. coli DH5α): 25 mg/L
MIC A. hydrophila (Aeromonas hydrophila; 96-well plate, 37° C., 10 h): 12.5 mg/L
MIC E. coli BL21 (E. coli BL21; 96-well plate, 37° C., 10 h): 50 mg/L

From patent publication US9833497B2, “Human originated EGF domain proteins and use of the same” (CHENGDU SOURCEBIO LIMITED-LIABILITY COMPANY, priority 2013, dated 2017)
